Measured values: patent US20230413816A1, “COMPOSITIONS COMPRISING ALLYL SULFIDE AND A SURFACTANT AND METHODS OF USING SAME” (The State of Israel, Ministry of Agriculture & Rural …, priority 2020, published 2023)

Tests used:
[1] = tested on: Grapevines; experiment: Bud break scored on the BBCH scale, commercial vineyard in South Africa (Example 3); format: in vivo, grapevine; conditions: for bud-breaking efficiency compared with commercially available agents (HC): sulfide compound with 2% w/w T7; for bud break score (BBCH scale): 36 days after treatment, untreated score 19
Description: FIGS. 5A-5B are bar graphs presenting a comparison between the bud break efficiency of the exemplary compositions of the invention and controls in vine. The X-axis represents different treatments, and the Y-axis represents vine growth stage according to the BBCH scale, as scored 36 days after treatment. FIG. 5A represents a comparison between the synergistic bud break efficiency of T7 in combination with different sulfide compounds (DADS and dimethyl sulfide, DMS). 1—untreated vines (negative control); 2—2.5% w/w DMS and 2% w/w T7; 3—5% w/w DMS and 2% w/w T7; 4—HC (positive control); 5—5% w/w DADS and 2% w/w T7. FIG. 5B represents a comparison between the synergistic bud break efficiency of 6% w/w DADS in combination with various concentrations of T7 (entries 4-7) versus controls (entries 1-2, and 8). 1—untreated vines (negative control); 2—12% w/w T7 no DADS; 3—6% w/w DADS no T7; 4—6% w/w DADS and 12% w/w T7; 5—6% w/w DADS and 1% w/w T7; 6—6% w/w DADS and 2% w/w T7; 7—6% w/w DADS and 0.5% w/w T7; 8—HC (positive control).
Grapevines in a commercial vineyard in South Africa were sprayed exemplary agricultural compositions of the invention. Two different experimental treatments have been performed on 5 blocks of 14 vines. The bud break efficiency of each treatment has been evaluated by scoring 60 buds per vine according to BBCH scale at different time points after treatment. BBCH values represent average values of five blocks per treatment. The tested exemplary agricultural compositions utilized for each experimental treatment were as follows: • 2% w/w of T7 (see Table 1) together with various concentrations (2.5, 5 and 6% w/w) of the sulfide compound ([…] (DMS); and DADS). The effect of these treatments was compared to a commercial formulation comprising 50% HC; as well as to a negative control, i.e. untreated vines. The results of this experiment are represented in FIG. 5A. • 6% w/w DADS together with various concentrations (0.5, 1, 2 and 12% w/w) of T7. The effect of these treatments was compared to a commercial formulation comprising 50% HC; as well as to negative controls including untreated plant, and plants treated with 12% w/w T7 and 6% w/w DADS, respectively. The results of this experiment are represented in FIG. 5B.

[2] = tested on: whole vine; conditions: applied to the whole vine rather than to cuttings; cited from earlier work
[3] = tested on: spur-pruned cv. Early Sweet vines; experiment: Bud breaking on whole vines in a vineyard (Example 1, Jordan Valley); format: in vivo, grapevine
Procedure: FIG. 1 is a graph presenting a comparison between the bud break efficiency of the exemplary compositions of the invention and controls, when applied to spur-pruned cv. Early Sweet vines at the beginning of January in a vineyard located at Argaman, the Jordan Valley, Israel. Bud counts were conducted once a week and started about […] after treatment. The tested combinations were as follows: (a) DADS at 6% w/w, together with (b) 2% w/w of a non-ionic surfactant (abbreviated as T3-D2, T4-D2, T5-D2, T6-D2 or T7-D2, respectively) or of a cationic surfactant (Armobreak®, abbreviated as T1-D2). The controls were as follows: (a) plants treated with Triton X-100 (abbreviated as Con), and (b) single treatments with DADS, HC, and the surfactants (abbreviated as T1, T3, T4, T5, T6 or T7, respectively). The chemical structures of the surfactants are as represented in Table 1, below. The Y-axis represents the percentage of the bursting buds out of the total number of the buds on a vine.
The Y-axis represent the percentage of bursting basal buds out of total number of spurs on a vine.
Mature spur-pruned cv. […]
Each formulation was sprayed onto five blocks of two vines, wherein the values presented in FIG. 1 are an average of the ten tested grapevines. […] Total number of buds was recorded once for each vine, and number of bursting buds were recoded for each vine at 22, 27, 34 and 41 d after treatment.

[4] = tested on: Kiwi plants; experiment: Bud break trial on kiwi (Example 4); format: in vivo; conditions: 49 days after treatment
Description: The inventors performed numerous experiments to assess the effect of application of an exemplary composition of the invention (e.g. about 6% w/w DADS and about 4% w/w T7) on bud break in various plants. For each test from about 500 to about 1500 l/ha of the composition have been applied (e.g. by spraying) to the orchard, to result in almost complete wetting of the treated plants. The tested plant species included kiwi, cherry, apple, and plum.

Compound: C=CCSSCC=C [DADS, diallyl disulfide]
- bud-breaking efficiency compared with commercially available agents (HC) [1]: comparable with the efficiency of commercially available agents
- bud break enhancing effect compared with HC [2]: very limited and inferior to HC

Compound: N#CN [HC, hydrogen cyanamide]
- bud break efficiency, ranking among the treatments of FIG. 1 ([3]; 6% w/w DADS + 2% w/w surfactant, or HC, percentage of bursting buds): superior
- bud break uniformity along a spur ([3]; FIG. 3, basal buds): significantly less uniform bud break
- bud break [4]: 24%
- bud break of HC relative to the composition of the invention (times less) [4]: ~2 times
- green foliage coverage score (of 10) [4]: 2

Compound: CSC [DMS, dimethyl sulfide]
- bud break score (BBCH scale) ([1]; 2.5% w/w DMS and 2% w/w T7): 24
- bud break score (BBCH scale) ([1]; 5% w/w DMS and 2% w/w T7): 30-31
- bud-breaking efficiency compared with commercially available agents (HC) [1]: comparable with the efficiency of commercially available agents
